# ChEMBL document CHEMBL5634193, “Discovery of CVN293, a Brain Permeable KCNK13 (THIK-1) Inhibitor Suitable for Clinical Assessment” (ACS Med Chem Lett, 2024)
# How the values were obtained:
# [1] = Unbound drug concentration in C57BL/6 mouse brain at 10 mg/kg, po measured after 4 hrs by LC-MS/MS analysis; format: ADME, organism-based; conditions: in vivo
# [2] = molecular target: Voltage-dependent L-type calcium channel subunit alpha-1C (Homo sapiens, UniProt Q13936); experiment: Inhibition of CaV1.2 (unknown origin); format: toxicity
# Sequence of Voltage-dependent L-type calcium channel subunit alpha-1C (Q13936 whole entry): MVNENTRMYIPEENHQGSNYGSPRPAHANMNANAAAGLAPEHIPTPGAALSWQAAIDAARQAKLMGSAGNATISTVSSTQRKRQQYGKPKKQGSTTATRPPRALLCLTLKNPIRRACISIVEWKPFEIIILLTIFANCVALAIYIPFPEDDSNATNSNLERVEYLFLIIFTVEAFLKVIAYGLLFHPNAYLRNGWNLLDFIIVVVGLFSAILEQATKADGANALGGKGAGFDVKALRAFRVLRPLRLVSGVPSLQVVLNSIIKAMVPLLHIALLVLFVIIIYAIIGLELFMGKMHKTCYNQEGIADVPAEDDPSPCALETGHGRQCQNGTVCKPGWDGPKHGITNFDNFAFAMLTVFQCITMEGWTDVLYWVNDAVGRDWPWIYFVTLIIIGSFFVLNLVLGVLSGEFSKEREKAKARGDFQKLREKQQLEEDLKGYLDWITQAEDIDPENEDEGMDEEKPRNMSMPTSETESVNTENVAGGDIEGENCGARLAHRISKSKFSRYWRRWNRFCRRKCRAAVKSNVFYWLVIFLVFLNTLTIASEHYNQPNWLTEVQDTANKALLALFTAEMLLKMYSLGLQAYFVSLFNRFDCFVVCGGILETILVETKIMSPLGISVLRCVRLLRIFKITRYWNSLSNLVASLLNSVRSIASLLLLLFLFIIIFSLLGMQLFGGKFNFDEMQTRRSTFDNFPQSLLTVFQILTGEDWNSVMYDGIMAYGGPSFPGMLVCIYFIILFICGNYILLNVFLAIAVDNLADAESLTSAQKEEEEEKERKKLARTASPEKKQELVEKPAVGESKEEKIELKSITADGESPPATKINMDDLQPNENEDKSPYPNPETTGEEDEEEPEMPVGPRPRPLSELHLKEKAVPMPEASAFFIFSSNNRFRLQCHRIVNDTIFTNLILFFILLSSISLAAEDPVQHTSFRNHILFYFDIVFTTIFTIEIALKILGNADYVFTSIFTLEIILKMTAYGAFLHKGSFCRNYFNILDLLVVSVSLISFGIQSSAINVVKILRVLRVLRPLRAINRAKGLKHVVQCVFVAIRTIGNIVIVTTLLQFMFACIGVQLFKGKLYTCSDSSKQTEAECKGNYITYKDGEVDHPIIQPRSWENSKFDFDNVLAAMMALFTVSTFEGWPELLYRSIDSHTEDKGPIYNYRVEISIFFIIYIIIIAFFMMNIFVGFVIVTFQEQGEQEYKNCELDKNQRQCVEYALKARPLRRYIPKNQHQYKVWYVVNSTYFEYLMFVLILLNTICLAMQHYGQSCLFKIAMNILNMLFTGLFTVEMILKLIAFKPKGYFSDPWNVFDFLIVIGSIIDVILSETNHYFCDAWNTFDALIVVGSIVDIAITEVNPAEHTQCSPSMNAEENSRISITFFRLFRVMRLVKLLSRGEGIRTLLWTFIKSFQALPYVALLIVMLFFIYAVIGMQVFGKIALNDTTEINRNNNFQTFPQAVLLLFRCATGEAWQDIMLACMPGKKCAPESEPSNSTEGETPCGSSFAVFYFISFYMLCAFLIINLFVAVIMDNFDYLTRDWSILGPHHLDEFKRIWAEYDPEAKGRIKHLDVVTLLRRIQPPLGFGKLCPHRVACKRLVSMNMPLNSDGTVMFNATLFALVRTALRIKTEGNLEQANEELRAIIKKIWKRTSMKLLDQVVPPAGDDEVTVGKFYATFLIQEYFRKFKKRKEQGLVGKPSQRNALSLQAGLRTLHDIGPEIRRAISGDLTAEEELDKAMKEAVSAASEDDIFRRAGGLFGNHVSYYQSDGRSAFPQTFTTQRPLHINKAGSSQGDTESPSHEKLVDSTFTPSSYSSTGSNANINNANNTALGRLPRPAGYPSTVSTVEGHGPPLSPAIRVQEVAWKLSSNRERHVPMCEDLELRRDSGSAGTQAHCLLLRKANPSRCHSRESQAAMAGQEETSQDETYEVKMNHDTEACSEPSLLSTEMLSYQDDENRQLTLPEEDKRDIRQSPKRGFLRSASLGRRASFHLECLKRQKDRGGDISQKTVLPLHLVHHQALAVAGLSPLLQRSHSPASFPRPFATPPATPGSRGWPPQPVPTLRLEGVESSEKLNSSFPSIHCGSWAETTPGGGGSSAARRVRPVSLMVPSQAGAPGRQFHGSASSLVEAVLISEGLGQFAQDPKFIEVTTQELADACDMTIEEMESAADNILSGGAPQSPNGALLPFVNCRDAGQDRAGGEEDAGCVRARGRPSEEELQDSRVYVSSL
# [3] = molecular target: T1, Potassium channel subfamily K member 13 (Mus musculus, UniProt Q8R1P5); experiment: Inhibition of mouse KCNK13 transfected in HEK293 cells assessed as reduction in thallium influx incubated for 15 mins in dark by FLIPR assay; format: cell-based
# T1 sequence (Q8R1P5 whole entry): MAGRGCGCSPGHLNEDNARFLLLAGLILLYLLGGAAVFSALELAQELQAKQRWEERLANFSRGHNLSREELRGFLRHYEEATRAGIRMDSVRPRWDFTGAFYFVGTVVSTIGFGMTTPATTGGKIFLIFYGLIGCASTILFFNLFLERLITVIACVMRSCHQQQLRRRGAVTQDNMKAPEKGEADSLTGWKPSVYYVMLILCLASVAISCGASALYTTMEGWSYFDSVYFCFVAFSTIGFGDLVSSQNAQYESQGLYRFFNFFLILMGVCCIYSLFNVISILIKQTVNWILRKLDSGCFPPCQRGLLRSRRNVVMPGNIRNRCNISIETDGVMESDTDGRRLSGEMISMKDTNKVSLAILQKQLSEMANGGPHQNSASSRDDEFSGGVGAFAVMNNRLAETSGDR
# KCNK2 (Homo sapiens) = experiment: Inhibition of recombinant human KCNK2 transfected in HEK293 cells assessed as reduction in thallium influx at 30 uM incubated for 15 mins in dark by FLIPR assay relative to control
# [4] = molecular target: T2, Potassium channel subfamily K member 13 (Homo sapiens, UniProt Q9HB14); experiment: Inhibition of human KCNK13 transfected in HEK293 cells assessed as reduction in thallium influx incubated for 15 mins in dark by FLIPR assay; format: cell-based
# T2 sequence (Q9HB14 whole entry): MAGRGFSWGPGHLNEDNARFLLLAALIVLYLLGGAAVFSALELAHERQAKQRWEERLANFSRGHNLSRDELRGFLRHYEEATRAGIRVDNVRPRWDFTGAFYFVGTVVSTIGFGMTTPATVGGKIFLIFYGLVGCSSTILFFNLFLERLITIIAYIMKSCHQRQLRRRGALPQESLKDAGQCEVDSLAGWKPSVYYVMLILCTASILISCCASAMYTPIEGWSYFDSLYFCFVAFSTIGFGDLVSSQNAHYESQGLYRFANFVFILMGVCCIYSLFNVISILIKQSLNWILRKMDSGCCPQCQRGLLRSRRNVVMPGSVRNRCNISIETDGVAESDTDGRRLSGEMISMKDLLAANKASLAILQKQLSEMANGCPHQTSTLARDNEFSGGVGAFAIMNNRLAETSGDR
# [5] = Clearance in Sprague-Dawley rat at 0.5 mg/kg, iv; format: ADME, organism-based; conditions: in vivo
# [6] = Metabolic stability in rat liver microsomes assessed as intrinsic clearance; format: ADME, Microsome; conditions: read-out: CLH
# [7] = molecular target: T2, Potassium channel subfamily K member 13; experiment: Inhibition of human KCNK13 transfected in HEK293 cells; format: cell-based
# [8] = Oral bioavailability in Beagle dog at 10 mg/kg; format: ADME, organism-based, Canis lupus familiaris; conditions: in vivo
# [9] = Oral bioavailability in Sprague-Dawley rat at 3 mg/kg; format: ADME, organism-based; conditions: in vivo
# [10] = molecular target: T1, Potassium channel subfamily K member 13; experiment: Inhibition of mouse KCNK13 transfected in HEK293 cells; format: cell-based
# [11] = Half life in Beagle dog at 10 mg/kg, po; format: ADME, organism-based, Canis lupus familiaris; conditions: in vivo
# [12] = Metabolic stability in human liver microsomes assessed as intrinsic clearance; format: ADME, Microsome; conditions: read-out: CLH
# [13] = Tmax in Cynomolgus monkey at 3 mg/kg, po; format: ADME, organism-based, Macaca fascicularis; conditions: in vivo
compound,measurement,setting,value
Nc1nonc1-c1nc2cccc(F)c2n1Cc1cccnn1,Cp(f),[1],0.248 µM
same,inhibition (INH),[2],Not Active
same,IC50,[3],0.028 µM
same,Imax,KCNK2 (Homo sapiens),17.4%
same,IC50,[4],0.041 µM
same,clearance,[5],2.1 L/h/kg
same,microsomal CLint,[6],9.9 µL/min/mg
same,IC50,[7],0.041 µM
same,F,[8],41%
same,bioavailability,[9],87%
same,IC50,[10],0.028 µM
same,half-life,[11],2.6 h
same,microsomal CLint,[12],< 9.6 µL/min/mg
same,Tmax,[13],1 h
